Measured values from article PMC8230315, “A Pan-Inhibitor for Protein Arginine Methyltransferase Family Enzymes” (Biomolecules, 2021).
“Also recorded” adds a separate entry of the source.

Biological target: PRMT1 (Homo sapiens, UniProt Q99873)
Test: Inhibition mechanism kinetic analysis, SAHH-coupled fluorescence assay with PRMT1
Assay type: biochemical
Protocol: The fluorescence-based SAHH-coupled assay was employed for the enzyme kinetic study. Varying concentrations of SAM (from 0.5 to 8 Km) with 5 μM fixed concentration of H4-21 or varying concentration of H4-21 (from 0.5 to 8 Km) with 10 μM fixed concentration of SAM was included in reactions with a series concentration of compounds. All the IC50 values were determined in triplicate. Fluorescence was monitored on a BMG CLARIOstar microplate with excitation at 380 nm and emission at 505 nm. Data were processed using GraphPad Prism software 7.0.

PRMT1, sequence (Q99873 whole entry, species assumed): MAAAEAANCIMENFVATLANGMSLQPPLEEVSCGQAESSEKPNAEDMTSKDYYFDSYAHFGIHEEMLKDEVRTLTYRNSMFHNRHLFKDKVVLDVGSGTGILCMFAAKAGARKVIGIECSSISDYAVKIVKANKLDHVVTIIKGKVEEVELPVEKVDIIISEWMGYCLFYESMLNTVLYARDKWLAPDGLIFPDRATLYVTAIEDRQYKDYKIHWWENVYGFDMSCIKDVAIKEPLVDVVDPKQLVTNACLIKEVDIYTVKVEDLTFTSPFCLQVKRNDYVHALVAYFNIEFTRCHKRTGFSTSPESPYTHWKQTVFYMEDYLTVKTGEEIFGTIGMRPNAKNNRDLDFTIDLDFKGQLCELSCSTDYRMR

N=C(NCCCSC[C@H]1O[C@@H](n2cnc3c(N)ncnc32)[C@H](O)[C@@H]1O)Nc1cccc(Br)c1 [Compound 6l, 1-(3-((((2S,3S,4R,5R)-5-(6-amino-9H-purin-9-yl)-3,4-dihydroxytetrahydrofuran-2-yl)methyl)thio)propyl)-3-(3-bromophenyl)guanidine]
inhibition pattern versus peptide substrate H4-21 (H4-21 from 0.5 to 8 Km, SAM fixed at 10 µM): noncompetitive | inhibition pattern versus SAM (SAM from 0.5 to 8 Km, H4-21 fixed at 5 µM, listed as II757): competitively binds at the SAM binding site; also recorded: SAM-competitive inhibitor
